Assay results: EP4567031A1, “HPK1 INHIBITOR, PREPARATION METHOD THEREFOR, AND USE THEREOF” (Beijing Earthwise Technology Co., Ltd., priority 2022, dated 2024)
Where two headings read alike, the source gives them in different places.

Experiments:
HPK1 = HPK1 (Homo sapiens, UniProt Q92918); assay: HPK1 HTRF kinase assay; type: biochemical; conditions: 1000 µM ATP, 50 nM HPK1, STK1 substrate
Method: The reaction was initiated by adding 50 nM HPK1. After 120 minutes of reaction, the assay was terminated by adding 10 µL of Detection Mix.
The ratio of the signal at 665 nm to the signal at 615 nm was converted to the percentage of inhibition. Inhibition % = (maximum value - sample value) / (maximum value - minimum value)×100. The minimum value refers to the value measured in a well without enzyme but with DMSO and substrate, and the maximum value refers to the value measured in a well with DMSO, enzyme and substrate. IC50 values were calculated by XLFit (version 5.3.1.3) in Excel. Equation: Y = Bottom + (Top - Bottom) / (1 + (IC50/X) ^ HillSlope).

human Pan T cells = assay: Human Pan T cell IL-2 ELISA; type: cell-based; conditions: Homo sapiens, T-cell, 48 h, Anti-CD3 and Anti-CD28, supernatant IL-2 ELISA, read-out: IL-2 release, EC50
Procedure, shortened: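 Human Pan T cells (1×10^6 cells/ml) stimulated with plate-bound anti-CD3 plus anti-CD28 and treated 48 h with compound at 9 final concentrations, 39.063–10000 nM. Supernatant IL-2 by ELISA, expressed as fold over DMSO wells; EC50 from four-parameter logistic fit.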

Sequence of HPK1 (Q92918 whole entry, species assumed): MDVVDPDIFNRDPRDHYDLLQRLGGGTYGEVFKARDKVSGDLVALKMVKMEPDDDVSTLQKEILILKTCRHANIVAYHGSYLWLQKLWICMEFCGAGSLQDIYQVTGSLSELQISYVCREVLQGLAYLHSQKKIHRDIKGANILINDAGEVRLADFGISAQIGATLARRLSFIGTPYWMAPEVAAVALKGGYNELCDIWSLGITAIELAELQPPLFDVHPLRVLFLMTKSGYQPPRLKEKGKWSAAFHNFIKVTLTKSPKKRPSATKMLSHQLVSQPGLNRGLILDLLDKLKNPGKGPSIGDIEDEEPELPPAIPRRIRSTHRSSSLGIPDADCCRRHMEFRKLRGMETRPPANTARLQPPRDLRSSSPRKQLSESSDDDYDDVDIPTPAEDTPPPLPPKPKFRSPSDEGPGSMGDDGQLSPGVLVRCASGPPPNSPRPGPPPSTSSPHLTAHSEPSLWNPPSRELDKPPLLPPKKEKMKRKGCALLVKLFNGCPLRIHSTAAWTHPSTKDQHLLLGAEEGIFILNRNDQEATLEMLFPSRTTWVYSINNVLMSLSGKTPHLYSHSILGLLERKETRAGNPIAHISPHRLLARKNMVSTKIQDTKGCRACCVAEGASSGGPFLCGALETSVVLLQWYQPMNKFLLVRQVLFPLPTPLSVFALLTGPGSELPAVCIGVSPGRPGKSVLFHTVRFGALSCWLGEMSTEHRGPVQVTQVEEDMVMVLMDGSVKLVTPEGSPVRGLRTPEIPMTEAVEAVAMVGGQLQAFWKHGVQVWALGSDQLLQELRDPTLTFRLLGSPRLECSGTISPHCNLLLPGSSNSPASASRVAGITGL

SMILES | EC50 (human Pan T cells) | IC50 (HPK1; read-out: HPK1, IC50) | IC50 (HPK1; HPK1, IC50 (nM))
Cc1ccn2c(-c3cc4c(c5c3CNC5=O)Nc3ccc(N5CCOC(C(C)(C)O)C5)cc3C4(C)C)cnc2c1F (single isomer, unassigned) [Example 88] | 12.3 nM |  | 11.6 nM
Cc1ccn2c(-c3cc4c(c5c3CNC5=O)Nc3ccc(N5CCOC(C(C)(C)O)C5)cc3C4(C)C)cnc2c1F (single isomer, unassigned) [Example 89] |  |  | 8.13 nM
COC1CCCn2c(-c3cc4c(c5c3CNC5=O)Nc3ccc(N5CCOCC5)cc3C4(C)C)cnc21 (single isomer, unassigned) [Example 90] | 6.3 nM | 6.72 nM | 
COC1CCCn2c(-c3cc4c(c5c3CNC5=O)Nc3ccc(N5CCOCC5)cc3C4(C)C)cnc21 (single isomer, unassigned) [Example 91] |  |  | 4.24 nM
CC1(C)c2cc(N3CCOC(C(C)(C)O)C3)ccc2Nc2c1cc(-c1cnn3cccnc13)c1c2C(=O)NC1 (stereo not shown) [Example 22] | 2.2 nM | 11.2 nM | 
COc1ccnn2c(-c3cc4c(c5c3CNC5=O)Nc3ccc(N5CCOC(C(C)(C)O)C5)cc3C4(C)C)cnc12 (stereo not shown) [Example 24] | 1.83 nM | 11.8 nM | 
CC1(C)c2cc(N3CCOCC3)ncc2Nc2c1cc(-c1cnn3cccnc13)c1c2C(=O)NC1 [Example 26] | 14.9 nM | 14.5 nM | 
COc1cccc2c(-c3cc4c(c5c3CNC5=O)Nc3cnc(N5CCOCC5)cc3C4(C)C)cnn12 [Example 27] | 1.79 nM | 11.7 nM | 
CC1(C)c2cc(N3CCOCC3)cnc2Nc2c1cc(-c1cnn3cccnc13)c1c2C(=O)NC1 [Example 28] | 95.9 nM | 21.5 nM | 
Cn1ccc(-c2cc3c(c4c2CNC4=O)Nc2ccc(N4CCOC(C(C)(C)O)C4)cc2C3(C)C)cc1=O (stereo not shown) [Example 32] | 12.3 nM | 16.4 nM | 
Cc1ccnn2c(-c3cc4c(c5c3CNC5=O)Nc3ccc(N5CCOC(C(C)(C)O)C5)cc3C4(C)C)cnc12 (stereo not shown) [Example 33] |  | 11.4 nM | 
CC1(C)c2cc(N3CCOCC3)ccc2Nc2c1cc(-c1cnc3c(C#N)cccn13)c1c2C(=O)NC1 [Example 34] | 2.41 nM | 11.5 nM | 
CC1(C)c2cc(N3CCOCC3)ccc2Nc2c1cc(-c1cnn3ccncc13)c1c2C(=O)NC1 [Example 35] | 14.5 nM | 12.8 nM | 
CC1(C)c2cc(N3CCOCC3)ccc2Nc2c1cc(-c1cnn3c1CCCC3)c1c2C(=O)NC1 [Example 36] | 6.33 nM | 11.8 nM | 
Cn1ccc2c(-c3cc4c(c5c3CNC5=O)Nc3ccc(N5CCOCC5)cc3C4(C)C)cncc21 [Example 38] | 4.7 nM | 12.3 nM | 
CC1(C)c2cc(N3CCOCC3)ccc2Nc2c1cc(-c1nnc3c(C#N)cccn13)c1c2C(=O)NC1 [Example 39] | 16.8 nM | 39 nM | 
Cc1ccn2c(-c3cc4c(c5c3CNC5=O)Nc3ccc(N5CCC(O)CC5)cc3C4(C)C)cnc2c1F [Example 40] | 5.07 nM | 12.3 nM | 
CC1(C)c2cc(CN3CCOCC3)ccc2Nc2c1cc(-c1cnn3cccnc13)c1c2C(=O)NC1 [Example 51] | 58.8 nM | 11.4 nM | 
CC1(C)c2cc(NC(=O)CC3CC3)ccc2Nc2c1cc(-c1cnn3cccnc13)c1c2C(=O)NC1 [Example 56] | 28 nM | 11.5 nM | 
CC1(C)c2cc(-c3cnn4cccnc34)c3c(c2Nc2cccc(OC4CCNC4)c21)C(=O)NC3 (stereo not shown) [Example 58] |  | 4150 nM | 
Cc1ccnc2c(-c3cc4c(c5c3CNC5=O)Nc3ccc(N5CCOCC5)cc3C4(C)C)cnn12 [Example 60] | 17.9 nM | 14.4 nM | 
COc1ccnc2c(-c3cc4c(c5c3CNC5=O)Nc3ccc(N5CCOCC5)cc3C4(C)C)cnn12 [Example 66] |  | 11.1 nM | 
Cn1c(-c2cc3c(c4c2CNC4=O)Nc2ccc(N4CCOCC4)cc2C3(C)C)cnc1C1CC1 [Example 68] | 21.1 nM | 12 nM | 
COC1CCCn2c(-c3cc4c(c5c3CNC5=O)Nc3ccc(N5CCOCC5)cc3C4(C)C)cnc21 (stereo not shown) [Example 69] | 11.4 nM | 6.86 nM | 
CC1(C)c2cc(N3CCOCC3)ccc2Nc2c1cc(-c1cnn3c1CNCC3)c1c2C(=O)NC1 [Example 70] | 23.4 nM | 12.7 nM | 

More lines, in order of falling IC50 (HPK1; read-out: HPK1, IC50), values ahead:

EC50 (human Pan T cells) | IC50 (HPK1; read-out: HPK1, IC50) | SMILES | IC50 (HPK1; HPK1, IC50 (nM))
68.6 nM | 11 nM | CC1(C)c2cc(N3CCOCC3)ccc2Nc2c1cc(-c1nnc3n1CCCC3)c1c2C(=O)NC1 [Example 71] | 
27.1 nM | 11 nM | CC1(C)c2cc(CN3CCNCC3)ccc2Nc2c1cc(-c1cnn3cccnc13)c1c2C(=O)NC1 [Example 57] | 
7.73 nM | 10.3 nM | Cc1ccn2c(-c3cc4c(c5c3CNC5=O)Nc3ccc(N5CCOC(CO)C5)cc3C4(C)C)cnc2c1F (stereo not shown) [Example 46] | 
27.9 nM | 10.1 nM | CC1(C)c2cc(-c3cnn4cccnc34)c3c(c2Nc2ccc(N4CCOCC4)nc21)C(=O)NC3 [Example 29] | 
19 nM | 8.71 nM | CN1CCN(Cc2ccc3c(c2)C(C)(C)c2cc(-c4cnn5cccnc45)c4c(c2N3)C(=O)NC4)CC1 [Example 50] | 
28 nM | 8.59 nM | CC1CCn2c(-c3cc4c(c5c3CNC5=O)Nc3ccc(N5CCOCC5)cc3C4(C)C)cnc2C1 (stereo not shown) [Example 65] | 
17.7 nM | 8.55 nM | Cc1cnc2c(-c3cc4c(c5c3CNC5=O)Nc3ccc(N5CCOCC5)cc3C4(C)C)cnn2c1 [Example 61] | 
9.08 nM | 8.2 nM | CC1(C)c2cc(C3COCCN3)ccc2Nc2c1cc(-c1cnn3cccnc13)c1c2C(=O)NC1 (stereo not shown) [Example 52] | 
2.27 nM | 7.98 nM | CC1(C)c2cc(N3CCOCC3)ccc2Nc2c1cc(-c1cnn3ccccc13)c1c2C(=O)NC1 [Example 37] | 
5.54 nM | 7.97 nM | CC1(C)c2cc(N3CCOCC3)ccc2Nc2c1cc(-c1cnn3cnccc13)c1c2C(=O)NC1 [Example 53] | 
6.97 nM | 7.78 nM | CC1(C)c2cc(N3CCOCC3)c(F)cc2Nc2c1cc(-c1cnn3cccnc13)c1c2C(=O)NC1 [Example 59] | 
40.3 nM | 7.55 nM | CN1CCN(c2ccc3c(c2)C(C)(C)c2cc(-c4cnn5cccnc45)c4c(c2N3)C(=O)NC4)C(=O)C1 [Example 55] | 
2.11 nM | 6.31 nM | CC1(C)c2cc(N3CCOC(C(C)(C)O)C3)ccc2Nc2c1cc(-c1cnc3cccnn13)c1c2C(=O)NC1 (stereo not shown) [Example 19] | 
3.02 nM | 6.08 nM | CC1(C)c2cc(N3CCOCC3)ccc2Nc2c1cc(-c1cnc3cc(F)ccn13)c1c2C(=O)NC1 [Example 62] | 
4.98 nM | 5.48 nM | COc1nccn2c(-c3cc4c(c5c3CNC5=O)Nc3ccc(N5CCOCC5)cc3C4(C)C)cnc12 [Example 63] | 
3.51 nM | 5.28 nM | CC1(C)c2cc(N3CCOCC3)ccc2Nc2c1cc(-c1cnc3c(F)cccn13)c1c2C(=O)NC1 [Example 64] | 
14.4 nM | 3.93 nM | Cn1cccc(Nc2cc3c(c4c2CNC4=O)Nc2ccc(N4CCOCC4)cc2C3(C)C)c1=O [Example 67] | 
6.53 nM | 3.81 nM | Cc1ccnn2c(-c3cc4c(c5c3CNC5=O)Nc3ccc(N5CCOCC5)cc3C4(C)C)cnc12 [Example 54] | 
< 1.5 nM | 3.65 nM | CC1(C)c2cc(N3CCOC(C(C)(C)O)C3)ccc2Nc2c1cc(-c1cnc3c(C#N)cccn13)c1c2C(=O)NC1 (stereo not shown) [Example 23] | 
18.1 nM | 2.13 nM | CC1(C)c2cc(CN3CCN(CC4CC4)CC3)ccc2Nc2c1cc(-c1cnn3cccnc13)c1c2C(=O)NC1 [Example 72] | 
